Reference: patent US9243076B2 (PIERRE FABRE MEDICAMENT, priority 2004, dated 2016)

What was measured:
[1] = Dissolution of the powder in aqueous solution (equivalent of 4 g/l piroxicam, sample after 15 min, HPLC); type: physicochemical; conditions: equivalent of 4 g/l of piroxicam in aqueous solution at 37° C.
[2] = 2:1 (v/v) dioxane:water mixture; cited from earlier work

Dissolution of the piroxicam (g/l) [1]: less than 0.2 g/l | Dissolution of the piroxicam ([1]; listed as Piroxicam): <0.2 g/L
SMILES: CN1C(C(=O)Nc2ccccn2)=C(O)c2ccccc2S1(=O)=O [piroxicam]
pKa value of the enol functional group [2]: ~2
